Earlier results on one substance are cited in patent publication US20050209315A1, “Bioavailable nutritional supplement and method of treatment of malabsorption” (priority 2004, published 2005).

For the data set the following is noted: relative to alpha tocopherol.

As for alpha-tocotrienol [Alpha tocotrienol], the “more antioxidant activity than alpha tocopherol” value was 40-60%.
